Measured values taken from US10441569B2, “Self-emulsifying formulations of DIM-related indoles” (BioResponse, L.L.C., priority 2015, dated 2019).
≈ marks a conversion by molar mass, not a printed value. Read-outs that look alike come from different tables or passages of the source. Each block holds one compound with its values, some of them ahead of it.

Assays:
[1] = cited from earlier work; for log P: no own measurement; for Log P of 2nd API drug: table of exemplary 2nd API drugs
[2] = Solubility of DIM in individual excipients (incremental addition, microscopic observation); type: physicochemical
Method: The first step in this development process was the testing of a variety of excipients chosen as potentially active in solubilizing DIM. […] The method involved weighing of approximately 2 grams of each of the liquid excipients into a small vial. Subsequently, a small amount of DIM was added and the mixture was shaken.
The method involved weighing of approximately 2 grams of each of the liquid excipients into a small vial. Subsequently, a small amount of DIM was added and the mixture was shaken. […] Continued testing of acceptable oil solvents for, e.g., nutritional supplement, self-emulsifying formulations using DIM as a representative DIM-related indole active ingredient included testing of the following oils: […]

[3] = Single dose human oral bioavailability study (plasma DIM by LC-MS/MS); type: in vivo; settings: both sexes
Method: Study Design: Single Center, Single-Blind, Single Dose, Oral Bioavailability Study, with Subject Crossover.
In Part I of the Study, a treatment group was administered a 300 mg dose of DIM from BR-DIM or a 300 mg dose of DIM from crystalline DIM on the first study day, followed by crossover to the other DIM formulation on the second study day, at least 14 days following the first treatment. 3 subjects were given crystalline DIM, 4 subjects were given BR-DIM.
In Part II of the Study, five individuals, four of whom participated in Part I of the Study, were administered a 300 mg dose of DIM from DIM SMEDDS Formulation D. Testing of DIM SMEDDS formula D took place on one day with 5 subjects. The subjects were all healthy, adult volunteers, both male and female, not consuming DIM containing supplements and in a fasting state on study days. Volunteers agreed not to consume cruciferous vegetable for one week prior to study days. Study groups consisted of 3, 4, or 5 individuals.
A baseline blood specimen was collected. For Part I of the Study, subjects ingested matching, opaque gelatin capsules containing either crystalline DIM (300 mg) or BR-DIM providing 300 mg DIM. Then, the subjects provided 8 cc samples of blood was collected at Baseline, and 1 hr, 2 hr, 3 hr, 4 hr, and 6 hr after administration of each of the formulations. A standard small meal was given at 4 hrs.
A baseline blood specimen was collected. Subjects ingested opaque gelatin capsules containing SEDDS DIM formulation (in particular, Formulation D described above) providing 300 mg dissolved DIM. The DIM SMEDDS formulation was provided in 3 hard gelatin capsules each containing 100 mg of DIM. Subsequently, 8 cc samples of blood were obtained and 30 cc samples of urine will be obtained according to the following chart. Blood was collected at Baseline, and 1 hr, 2 hr, 3 hr, 4 hr, and 6 hr after administration of the drug. A standard small meal was given at 4 hrs.
Blood sample handling: Within 15 minutes, plasma was centrifuged and frozen, stored on dry ice, then stored at minus 80 until assayed.
Pharmacokinetic evaluation was performed for all subjects. Blood samples (˜8 ml for each) were collected at 0 (baseline), 1, 2, 3, 4, and 6 hours after the oral administration of the dose of DIM, BR-DIM, or DIM SMEDDS formulation (i.e., Formulation D described above). Within 15 minutes of the collection, the blood samples were centrifuged at 4° C., at 2000 g for 10 minutes, and plasma was collected immediately after centrifugation and transferred to the screw-cap polypropylene cryogenic tubes. The plasma samples were stored at −80° C. until analysis.
The concentrations of DIM in human plasma samples were determined by a validated high-performance liquid chromatography with tandem mass spectrometry (LC-MS/MS) method. Briefly, to 50 μl human plasma, 100 μl of 2% formic acid in methanol (containing 1 μg/mL internal standard zileuton) was added to precipitate proteins. The mixture was vortex-mixed for 1 minute, and centrifuged at 14,000 g at 4° C. for 10 minutes. The supernatant was collected and 10 μl was injected into the LC-MS/MS system. Chromatographic analysis was performed using a Waters model 2690 separation system (Milford, Mass., USA). The analytes were separated on a Waters X-Terra MS column (150 mm×2.1 mm i.d.) using a mobile phase consisting of methanol/0.45% formic acid (70:30, v/v), and isocratic flow at 0.2 mL/min. The analytes were monitored by a Waters Micromass triple quadrupole mass spectrometer (Milford, Mass., USA) using an electrospray probe in the positive ionization mode operating at a cone voltage of 23V for DIM and 13V for the internal standard zileuton. Samples were introduced into the ionization source through a heated nebulized probe (350° C.). The collision energy was set at 30 eV and 9 eV for DIM and zileuton, respectively. The transitions at 129.9>76.8 and 237.1>161.1 were monitored for DIM and zileuton, respectively. […]

[4] = Intra-individual comparison of DIM plasma levels, one adult subject; type: in vivo; settings: human, same adult subject, 300 mg oral
Method: Repeated single-use of 300 mg oral doses of DIM in different DIM formulations was conducted. Absorption studies using the same adult subject on separate test days were performed. This allowed comparison of DIM absorption and Plasma Pharmacokinetics through comparison of DIM plasma levels measured following administration of unformulated crystalline DIM, following administration of absorption-enhanced, microencapsulated DIM (BR-DIM), following administration of DIM SMEDDS Formulation “D” without Poloxamer 124, and following administration of DIM SMEDDS Formulation “G” with Poloxamer 124, to the human subject. The same oral administration and timed plasma sampling protocol was used on different study days, separated by at least 2 weeks. Plasma level results for each time point are presented in the following chart.

[5] = Shake-flask determination of maximum solubility of DIM; type: physicochemical; settings: for solubility: 37 °C, thermodynamic from solid, read-out: maximal solubility
Method: (§1) In directly determining the solubility of DIM the shake-flask method for determination of maximum solubility in aqueous media was utilized. The solubility was determined as described by Lindenberg et al., 2004, Eur J Pharm Biopharm. 58(2):265-78. The drug was weighed in excess of its expected solubility in Uniprep® vials equipped with a 0.45-μm membrane filter, and 2 ml of Milli-Q water, 0.01N HCL (pH 2.0), or phosphate buffer (pH 7.4) (USP) was added into the vial. The vials were incubated at 37±0.5° C. while shaking on a “Polymax 1040” orbital shaker (Heidolph, Schwabach). The samples of the solutions were taken after 4 or 24 hours by pressing the Uniprep® plunger down, diluted as appropriate, and the concentration of DIM was analyzed by HPLC, as described below. The measurements were done in triplicate. The maximum concentration of DIM in aqueous media used in this study was 0.6 μg/ml. The solubility or stability was not influenced by pH and was similar in water, 0.01N HCl or PBS (pH 7.4).

[6] = Particle size after dispersion and spontaneous emulsion formation in water (laser light scattering); type: physicochemical; settings: Malvern Mastersizer, DIM as supplied by BioResponse
Method: Each of the formulations were tested by dispersing approximately 1 gram of the candidate formulation in 200 mL of deionized water at approximately 37° C. with slow stirring of a magnetic spin bar in a 1 L beaker. Within five minutes of the addition, sufficient mixture was added to a Malvern Mastersizer dynamic laser light scattering instrument to satisfy the obscuration of the laser beams needed for measurement.
Some of the formulations were formulated with and without Soluplus and with and without phosphatidyl choline-rich isolates from lecithin. The formulations were tested by dispersing approximately 1 gram of the candidate formulation in 200 mL of deionized water at approximately 37° C. with slow stirring of a magnetic spin bar in a 1 L beaker. Within five minutes of the addition, sufficient mixture was added to a Malvern Mastersizer dynamic laser light scattering instrument to satisfy the obscuration of the laser beams needed for measurement.
The dispersions of Formulations R and T were tested for particle size by laser diffraction following dispersion and spontaneous emulsion formation in water. […] The particle size determined is expressed as diameter in microns (μ) in the following chart, and comparison is made to other nutritional and pharmaceutical formulations described herein: […]

[7] = Experimental log P of DIM (octanol / aqueous shake-flask, HPLC); type: physicochemical; settings: octanol / aqueous media (separate shake-flask solubilities); from octanol and aqueous shake-flask results; read-out: Experimental log P Determination
Method: as §1

[8] = healthy humans, single oral dose 300 mg DIM, averaged

Compound: CC(O)(CS(=O)(=O)c1ccc(F)cc1)C(=O)Nc1ccc(C#N)c(C(F)(F)F)c1 (centres unmarked) [Biculatamide, Bicalutamide]
log P [1]: 4.94

DIM Solubility % ([2]; in Black Cumin oil): 2%
DIM Solubility ([2]; in Capryol 90 (Propylene glycol monocaprylate)): 7%
DIM Solubility ([2]; in Capryol PGMC (Propylene glycol monocaprylate)): 8%
DIM Solubility ([2]; in Crodasol HS-HP (monoesters and diesters of 12-hydroxystearic acid and macrogols)): 14%
DIM Solubility ([2]; in Gelucire 44/14 (Lauroyl polyoxyl-32 glycerides)): 19%
DIM Solubility ([2]; in Labrafac AC WL1349 (Medium-chain triglycerides)): 3%
DIM Solubility ([2]; in Labrafac PG (Propylene glycol di-caprylate)): 4.5%^
DIM Solubility ([2]; in Labrafil M1944CS (Oleoyl polyoxyl-6 glycerides)): 5%
DIM Solubility ([2]; in Labrasol ALF (Caprylocaproyl polyoxyl-8 glycerides)): 25%
DIM Solubility ([2]; in Lauroylglycol 90 (Propylene glycol monolaurate)): 3%
DIM Solubility ([2]; in Maisine 35-1 (Glyceryl monolinoleate)): 2%
DIM Solubility ([2]; in Peceol (Glycerol monooleate)): 2%
DIM Solubility ([2]; in Peppermint oil): 4%
DIM Solubility ([2]; in Plurol Oleique (Glycerol mono/di-oleate)): 5%
DIM Solubility ([2]; in Polysorbate 80): 12%
DIM Solubility ([2]; in Propylene glycol): 2%
DIM Solubility % ([2]; in Rosemary Oil): 6%
DIM Solubility ([2]; in Transcutol (Diethylene glycol monoethyl ether)): >25%
ability of oil to dissolve DIM ([2]; olive oil or sunflower oil): very low ability to dissolve DIM
AUC(0-inf) [3, 8]: 98.5 ng·h/mL
Cmax [3, 8]: 18.1 ng/mL
Tmax [3, 8]: 1.7 h
half-life [3, 8]: 2.2 h
concentration at 0 h ([3]; time 0 hour (baseline), 300 mg oral, read-out: averaged plasma level of DIM): 0 ng/mL
concentration at 1 h ([3]; time 1 hour, 300 mg oral, read-out: averaged plasma level of DIM): 17.8 ng/mL
concentration at 2 h ([3]; time 2 hour, 300 mg oral, read-out: averaged plasma level of DIM): 16.7 ng/mL
concentration at 3 h ([3]; time 3 hour, 300 mg oral, read-out: averaged plasma level of DIM): 10.6 ng/mL
concentration at 4 h ([3]; time 4 hour, 300 mg oral, read-out: averaged plasma level of DIM): 10 ng/mL
concentration at 6 h ([3]; time 6 hour, 300 mg oral, read-out: averaged plasma level of DIM): 5.8 ng/mL
AUC ([3]; time zero to infinity, 300 mg oral): 98.5 ng·h/mL
AUC [4]: 17 ng·h/mL
Cmax [4]: 6.8 ng/mL
concentration at 0 h ([4]; time 0 hr, read-out: Plasma level of DIM): 0 ng/mL
concentration at 1 h ([4]; time 1 hr, read-out: Plasma level of DIM): 4.5 ng/mL
concentration at 2 h ([4]; time 2 hr, read-out: Plasma level of DIM): 6.8 ng/mL
concentration at 3 h ([4]; time 3 hr, read-out: Plasma level of DIM): 4.7 ng/mL
concentration at 4 h ([4]; time 4 hr, read-out: Plasma level of DIM): 2.6 ng/mL
solubility ([5]; 0.01N HCl, simulated gastric fluid, aqueous acid environment of pH 2): 0.6 µg/mL (≈ 2.44 µM)
solubility ([5]; in water): 0.7 µg/mL (≈ 2.84 µM)
concentration of DIM in Octanol ([5]; Octanol, shake-flask method, HPLC): 2,300 μg/ml
maximum concentration of DIM in aqueous media ([5]; water, 0.01N HCl (pH 2.0) or phosphate buffer (pH 7.4), 37°C): 0.6 µg/mL
Particle Size Diameter after Dispersion in Water (nm) [6]: 3,010^1^ nm
logP [7]: 3.58
Compound: c1ccc2c(Cc3c[nH]c4ccccc34)c[nH]c2c1 [DIM, 3,3′-diindolylmethane]

Compound: COc1cc2ncnc(Nc3ccc(F)c(Cl)c3)c2cc1OCCCN1CCOCC1 [Gefitinib, N-(3-chloro-4-fluoro-phenyl)-7-methoxy-6-(3-morpholin-4-ylpropoxy)quinazolin-4-amine]
log P [1]: 3.72
Log P of 2nd API drug [1]: 3.72

Compound: CNC(=O)c1cccc2cc(Oc3ccnc4cc(OCC5(N)CC5)c(OC)cc34)ccc12 [Lucitanib, 6-[7-[(1-aminocyclopropyl)methoxy]-6-methoxyquinolin-4-yl]oxy-N-methylnaphthalene-1-carboxamide]
log P [1]: 3.81
Log P of 2nd API drug [1]: 3.81

Compound: CCCCCCCCCCCCCCCC(=O)OC/C=C(C)/C=C/C=C(C)/C=C/C1=C(C)CCCC1(C)C [Retinyl palmitate, Retinyl Palmitate]
log P [1]: 5.68

Compound: COc1cc(C)c(/C=C/C(C)=C/C=C/C(C)=C/C(=O)O)c(C)c1C [acitretin]
log P [1]: 5.73

Compound: CC1=C(/C=C/C(C)=C/C=C/C(C)=C\C(=O)O)C(C)(C)CCC1 [isotretinoin, 13-cis retinoic acid]
log P [1]: 6.83

Compound: CC(C)=CCC/C(C)=C/CC/C(C)=C/CC/C(C)=C/CC1=C(C)C(=O)c2ccccc2C1=O [menaquinone-4]
log P [1]: 10-12

Compound: Vitamin D
log P [1]: 7.5
